The supplement of paper PMC10307832

Legend:
Test in all cases: relative viability (nuclei count vs DMSO), 5 days (fraction); higher = more cells survive
Dabrafenib + Vorinostat = compound: CC(C)(C)c1nc(-c2cccc(NS(=O)(=O)c3c(F)cccc3F)c2F)c(-c2ccnc(N)n2)s1 [Dabrafenib] + O=C(CCCCCCC(=O)Nc1ccccc1)NO [Vorinostat] (partner 1 µM)
In short: (§1)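 Relative viability divides the nuclei count in treated wells by that in vehicle wells. Lung cancer cell lines were seeded in 1536-well plates, dosed by pin tool the next day, and fixed and stained after 5 days in one step with final 0.05% Triton X-100, 1% formaldehyde and 1 ug/ml Hoechst. Dosing was a single drug or a fixed anchor-drug dose plus five library-drug doses (not always all listed) in √10 steps, and values are medians of duplicate plates imaged at 4×.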

VX-702 + Dasatinib = compound: NC(=O)c1ccc(N(C(N)=O)c2c(F)cccc2F)nc1-c1ccc(F)cc1F [VX-702] + Cc1nc(Nc2ncc(C(=O)Nc3c(C)cccc3Cl)s2)cc(N2CCN(CCO)CC2)n1 [Dasatinib] (partner 0.075 µM)
In short: as §1

VX-702 + Decitabine = compound: NC(=O)c1ccc(N(C(N)=O)c2c(F)cccc2F)nc1-c1ccc(F)cc1F [VX-702] + Nc1ncn([C@H]2C[C@H](O)[C@@H](CO)O2)c(=O)n1 [Decitabine] (partner 2 µM)
In short: as §1

VX-702 + Vorinostat = compound: NC(=O)c1ccc(N(C(N)=O)c2c(F)cccc2F)nc1-c1ccc(F)cc1F [VX-702] + O=C(CCCCCCC(=O)Nc1ccccc1)NO [Vorinostat] (partner 1 µM)
In short: as §1

| Cell Line | relative viability (Dabrafenib + Vorinostat; first compound 0.003 µM) | relative viability (Dabrafenib + Vorinostat; first compound 0.009487 µM) | relative viability (Dabrafenib + Vorinostat; first compound 0.03 µM) | relative viability (Dabrafenib + Vorinostat; first compound 0.09487 µM) | relative viability (Dabrafenib + Vorinostat; first compound 0.3 µM) | relative viability (VX-702 + Dasatinib; first compound 0.02 µM) | relative viability (VX-702 + Dasatinib; first compound 0.2 µM) | relative viability (VX-702 + Dasatinib; first compound 0.6325 µM) | relative viability (VX-702 + Dasatinib; first compound 2 µM) | relative viability (VX-702 + Decitabine; first compound 0.02 µM) | relative viability (VX-702 + Decitabine; first compound 0.2 µM) | relative viability (VX-702 + Decitabine; first compound 0.6325 µM) | relative viability (VX-702 + Decitabine; first compound 2 µM) | relative viability (VX-702 + Vorinostat; first compound 0.02 µM) | relative viability (VX-702 + Vorinostat; first compound 0.2 µM) | relative viability (VX-702 + Vorinostat; first compound 0.6325 µM) | relative viability (VX-702 + Vorinostat; first compound 2 µM) |
| --- | --- | --- | --- | --- | --- | --- | --- | --- | --- | --- | --- | --- | --- | --- | --- | --- | --- |
| 201T | 0.978 | 1.07 | 0.813 | 0.947 | 0.98 | 0.578 | 0.542 | 0.587 | 0.576 | 0.86 | 0.838 | 0.871 | 0.886 | 0.966 | 0.956 | 1.09 | 1 |
| A549 |  |  |  |  |  |  |  |  |  | 0.303 | 0.249 | 0.332 | 0.177 |  |  |  |  |
| A-427 | 0.793 | 0.962 | 0.787 | 0.762 | 0.866 | 0.689 | 0.698 | 0.796 | 0.584 | 0.623 | 0.503 | 0.54 | 0.542 | 0.897 | 0.869 | 0.895 | 1.01 |
| ABC-1 |  | 1.37 | 1.19 | 1.25 | 1.04 | 0.666 | 0.535 | 0.573 | 0.562 | 0.923 | 1.09 | 1.09 | 1.31 | 1.46 | 0.922 | 1.17 | 1.41 |
| BEN |  | 0.499 |  | 0.517 | 0.612 | 0.337 | 0.255 | 0.317 | 0.304 | 0.724 | 0.646 | 0.694 | 0.776 | 0.63 | 0.559 | 0.643 | 0.559 |
| CAL-12T | 1.06 | 0.581 | 0.804 | 0.679 | 0.795 | 0.409 | 0.539 | 0.273 | 0.463 |  |  |  |  | 0.688 | 0.744 | 0.725 | 1.04 |
| COR-L23 | 0.387 | 0.418 | 0.441 | 0.412 | 0.44 | 0.523 | 0.475 | 0.559 | 0.673 | 0.518 | 0.521 | 0.435 | 0.525 | 0.511 | 0.47 | 0.46 | 0.491 |
| COR-L 105 | 0.779 | 0.975 | 0.806 | 0.888 | 0.911 | 0.315 | 0.402 | 0.313 | 0.3 | 0.619 | 0.722 | 0.696 | 0.636 | 0.734 | 0.805 | 0.795 | 0.855 |
| ChaGo-K-1 | 0.518 | 0.727 | 0.663 | 0.694 | 0.754 | 0.769 | 0.584 | 0.622 | 0.614 | 0.532 | 0.493 | 0.516 | 0.525 | 0.84 | 0.7 | 0.79 | 0.795 |
| EKVX |  | 0.862 | 0.716 | 0.608 | 0.806 | 0.62 | 0.491 | 0.527 | 0.436 | 0.425 | 0.29 | 0.303 | 0.276 | 0.823 | 0.671 | 0.676 | 0.696 |
| EMC-BAC-2 |  | 0.459 | 0.324 | 0.281 | 0.328 | 0.182 | 0.331 | 0.332 | 0.275 | 0.969 | 0.962 | 0.944 | 0.885 | 0.477 | 0.427 | 0.496 | 0.427 |
| EPLC-272H | 0.401 | 0.411 | 0.409 | 0.436 | 0.498 | 0.359 | 0.332 | 0.362 | 0.377 | 0.353 | 0.373 | 0.374 | 0.403 | 0.401 | 0.571 | 0.535 | 0.438 |
| H3255 | 0.762 | 0.765 | 0.755 | 0.913 | 0.78 | 0.312 | 0.301 | 0.44 | 0.409 | 0.541 |  | 0.671 | 0.625 | 0.757 |  | 0.598 | 0.866 |
| HARA | 0.553 | 0.644 |  | 0.481 | 0.567 | 0.224 | 0.268 | 0.36 | 0.329 | 0.567 |  | 0.512 | 0.523 | 0.527 | 0.51 | 0.542 | 0.449 |
| HCC-15 | 0.862 | 0.844 | 0.825 | 0.768 | 0.896 | 0.667 | 0.501 | 0.602 | 0.639 | 0.656 | 0.586 | 0.627 | 0.647 | 0.813 | 0.803 | 0.854 | 0.858 |
| HCC-44 | 1.07 | 1.06 | 1.28 | 1.05 | 1.08 |  |  |  |  | 1 | 0.969 | 1.02 | 0.924 | 1.17 | 1.09 | 1.19 | 1.16 |
| HCC-78 |  | 0.507 | 0.426 | 0.511 | 0.616 | 0.449 | 0.338 | 0.351 | 0.356 | 0.744 | 0.669 | 0.715 | 0.665 | 0.393 | 0.486 | 0.427 | 0.543 |
| HCC-366 | 0.365 | 0.286 | 0.29 | 0.296 | 0.247 | 0.786 | 0.601 | 0.598 | 0.22 | 0.331 | 0.305 | 0.353 | 0.266 | 0.402 | 0.38 | 0.427 | 0.133 |
| HCC-827 | 0.423 | 1.01 | 0.785 |  | 0.79 | 0.274 | 0.342 | 0.271 | 0.145 | 0.295 | 0.31 | 0.337 | 0.189 | 0.879 | 0.799 | 0.885 | 0.827 |
| HOP-62 | 0.199 | 0.806 | 0.555 | 0.341 | 0.5 | 0.741 | 0.702 | 0.674 | 0.735 | 0.209 | 0.166 | 0.206 | 0.196 | 0.869 | 0.697 | 0.744 | 0.817 |
| IA-LM |  | 0.957 | 0.983 | 0.829 | 1.07 |  |  |  |  |  |  |  |  | 0.937 | 0.936 | 0.853 | 0.878 |
